This assay has as its system ISG reporter activity in THP1-Dual cell. The assay is described as follows: ISG reporter assay. The class given is cell-based. To be noted: Homo sapiens, compounds incubated with cells for 24 hours, QUANTI-Blue, absorbance at 655 nm. For orientation: In a reporter assay the amount or activity of a reporter protein is the signal.

Drawing on patent US20230219931A1, “FUSED HETEROARYL HYDROXAMATES AS STING AGONISTS” (BiSiChem Co., Ltd., priority 2022, published 2023), this text covers EC50 for 15 compounds.

In general, pEC50 refers to the EC50 on a negative log10 scale, so that one unit is a factor of ten. Higher therefore signals a low EC50.

Structures are written as SMILES. pEC50: −log10 of the molar value.

With `CCn1nc(C)cc1C(=O)Nc1nc2cc(C(N)=O)cc(OC)c2n1C/C=C/Cn1c(NC(=O)c2cc(C)nn2CC)nc2cc(C(N)=O)cc(OCC#CCC3CCN(C(=O)N4CCN(C(=O)OC(C)(C)C)CC4)CC3)c21` [Example 47, tert-butyl (E)-4-(4-(4-((5-carbamoyl-1-(4-(5-carbamoyl-2-(1-ethyl-3-methyl-1H-pyrazole-5-carboxamido)-7-methoxy-1H-benzo[d]imidazol-1-yl)but-2-en-1-yl)-2-(1-ethyl-3-methyl-1H-pyrazole-5-carboxamido)-1H-benzo[d]imidazol-7-yl)oxy)but-2-yn-1-yl)piperidine-1-carbonyl)piperazine-1-carboxylate], the pEC50 was more than 7.30.

`CCn1nc(C)cc1C(=O)Nc1nc2cc(C(N)=O)cc(OC)c2n1C/C=C/Cn1c(NC(=O)c2cc(C)nn2CC)nc2cc(C(N)=O)cc(OCC#CC3CCN(C(=O)NC4CC4)CC3)c21` [Example 14, (E)-1-(4-(5-carbamoyl-2-(1-ethyl-3-methyl-1H-pyrazole-5-carboxamido)-7-methoxy-1H-benzo[d]imidazol-1-yl)but-2-en-1-yl)-7-((3-(1-(cyclopropylcarbamoyl)piperidin-4-yl)prop-2-yn-1-yl)oxy)-2-(1-ethyl-3-methyl-1H-pyrazole-5-carboxamido)-1H-benzo[d]imidazole-5-carboxamide] had a pEC50 of more than 7.30.

`CCn1nc(C)cc1C(=O)Nc1nc2cc(C(N)=O)cc(OC)c2n1C/C=C/Cn1c(NC(=O)c2cc(C)nn2CC)nc2cc(C(N)=O)cc(OCC#CC3CCN(S(C)(=O)=O)CC3)c21` [Example 19, (E)-1-(4-(5-carbamoyl-2-(1-ethyl-3-methyl-1H-pyrazole-5-carboxamido)-7-((3-(1-(methylsulfonyl)piperidin-4-yl)prop-2-yn-1-yl)oxy)-1H-benzo[d]imidazol-1-yl)but-2-en-1-yl)-2-(1-ethyl-3-methyl-1H-pyrazole-5-carboxamido)-7-methoxy-1H-benzo[d]imidazole-5-carboxamide] had a pEC50 of more than 7.30. `CCn1nc(C)cc1C(=O)Nc1nc2cc(C(N)=O)cc(OC)c2n1C/C=C/Cn1c(NC(=O)c2cc(C)nn2CC)nc2cc(C(N)=O)cc(OCC#CC3CCN(S(=O)(=O)N4CCN(C(=O)OC(C)(C)C)CC4)CC3)c21` [Example 28, tert-butyl (E)-4-((4-(3-((5-carbamoyl-1-(4-(5-carbamoyl-2-(1-ethyl-3-methyl-1H-pyrazole-5-carboxamido)-7-methoxy-1H-benzo[d]imidazol-1-yl)but-2-en-1-yl)-2-(1-ethyl-3-methyl-1H-pyrazole-5-carboxamido)-1H-benzo[d]imidazol-7-yl)oxy)prop-1-yn-1-yl)piperidin-1-yl)sulfonyl)piperazine-1-carboxylate] showed a pEC50 of more than 7.30. The compound `CCn1nc(C)cc1C(=O)Nc1nc2cc(C(N)=O)cc(OC)c2n1C/C=C/Cn1c(NC(=O)c2cc(C)nn2CC)nc2cc(C(N)=O)cc(OCC#CC(C)(C)N3CCN(C(=O)OC(C)(C)C)CC3)c21` [Example 41, tert-butyl (E)-4-(5-((5-carbamoyl-1-(4-(5-carbamoyl-2-(1-ethyl-3-methyl-1H-pyrazole-5-carboxamido)-7-methoxy-1H-benzo[d]imidazol-1-yl)but-2-en-1-yl)-2-(1-ethyl-3-methyl-1H-pyrazole-5-carboxamido)-1H-benzo[d]imidazol-7-yl)oxy)-2-methylpent-3-yn-2-yl)piperazine-1-carboxylate] gave a negative-log EC50 (pEC50) of more than 7.30. Under `CCn1nc(C)cc1C(=O)Nc1nc2cc(C(=O)NOC)cc(OC)c2n1C/C=C/Cn1c(NC(=O)c2cc(C)nn2CC)nc2cc(C(N)=O)cc(OCC#CC(C)(C)O)c21` [Example 33, (E)-1-(4-(5-carbamoyl-2-(1-ethyl-3-methyl-1H-pyrazole-5-carboxamido)-7-((4-hydroxy-4-methylpent-2-yn-1-yl)oxy)-1H-benzo[d]imidazol-1-yl)but-2-en-1-yl)-2-(1-ethyl-3-methyl-1H-pyrazole-5-carboxamido)-N,7-dimethoxy-1H-benzo[d]imidazole-5-carboxamide] stands less than 6.30; under `CCn1nc(C)cc1C(=O)Nc1nc2cc(C(N)=O)cc(OC)c2n1C/C=C/Cn1c(NC(=O)c2cc(C)nn2CC)nc2cc(C(N)=O)cc(OCC#CCC3CCN(S(=O)(=O)N4CCN(C(=O)OC(C)(C)C)CC4)CC3)c21` [Example 49, tert-butyl (E)-4-((4-(4-((5-carbamoyl-1-(4-(5-carbamoyl-2-(1-ethyl-3-methyl-1H-pyrazole-5-carboxamido)-7-methoxy-1H-benzo[d]imidazol-1-yl)but-2-en-1-yl)-2-(1-ethyl-3-methyl-1H-pyrazole-5-carboxamido)-1H-benzo[d]imidazol-7-yl)oxy)but-2-yn-1-yl)piperidin-1-yl)sulfonyl)piperazine-1-carboxylate], more than 7.30. Compound `CCn1nc(C)cc1C(=O)Nc1nc2cc(C(N)=O)cc(OC)c2n1C/C=C/Cn1c(NC(=O)c2cc(C)nn2CC)nc2cc(C(N)=O)cc(OCC#CC3CCN(S(=O)(=O)C(C)C)CC3)c21` [Example 20, (E)-1-(4-(5-carbamoyl-2-(1-ethyl-3-methyl-1H-pyrazole-5-carboxamido)-7-((3-(1-(isopropylsulfonyl)piperidin-4-yl)prop-2-yn-1-yl)oxy)-1H-benzo[d]imidazol-1-yl)but-2-en-1-yl)-2-(1-ethyl-3-methyl-1H-pyrazole-5-carboxamido)-7-methoxy-1H-benzo[d]imidazole-5-carboxamide] gave a pEC50 of more than 7.30.

In turn, `CCn1nc(C)cc1C(=O)Nc1nc2cc(C(N)=O)cc(OC)c2n1C/C=C/Cn1c(NC(=O)c2cc(C)nn2CC)nc2cc(C(N)=O)cc(OCC#CC3CCN(C(=O)C4CCN(C(=O)OC(C)(C)C)CC4)CC3)c21` [Example 12, tert-butyl (E)-4-(4-(3-((5-carbamoyl-1-(4-(5-carbamoyl-2-(1-ethyl-3-methyl-1H-pyrazole-5-carboxamido)-7-methoxy-1H-benzo[d]imidazol-1-yl)but-2-en-1-yl)-2-(1-ethyl-3-methyl-1H-pyrazole-5-carboxamido)-1H-benzo[d]imidazol-7-yl)oxy)prop-1-yn-1-yl)piperidine-1-carbonyl)piperidine-1-carboxylate] gave a pEC50 of more than 7.30.

Turning to `CCn1nc(C)cc1C(=O)Nc1nc2cc(C(N)=O)cc(OC)c2n1C/C=C/Cn1c(NC(=O)c2cc(C)nn2CC)nc2cc(C(N)=O)cc(OCC#CC3CCN(C(=O)OC4CCN(C(=O)OC(C)(C)C)CC4)CC3)c21` [Example 8, 1-(tert-butoxycarbonyl)piperidin-4-yl (E)-4-(3-((5-carbamoyl-1-(4-(5-carbamoyl-2-(1-ethyl-3-methyl-1H-pyrazole-5-carboxamido)-7-methoxy-1H-benzo[d]imidazol-1-yl)but-2-en-1-yl)-2-(1-ethyl-3-methyl-1H-pyrazole-5-carboxamido)-1H-benzo[d]imidazol-7-yl)oxy)prop-1-yn-1-yl)piperidine-1-carboxylate], the pEC50 was more than 7.30. Under `CCn1nc(C)cc1C(=O)Nc1nc2cc(C(N)=O)cc(OC)c2n1C/C=C/Cn1c(NC(=O)c2cc(C)nn2CC)nc2cc(C(N)=O)cc(OCC#CC3CCN(S(=O)(=O)N4CCOCC4)CC3)c21` [Example 27, (E)-1-(4-(5-carbamoyl-2-(1-ethyl-3-methyl-1H-pyrazole-5-carboxamido)-7-((3-(1-(morpholinosulfonyl)piperidin-4-yl)prop-2-yn-1-yl)oxy)-1H-benzo[d]imidazol-1-yl)but-2-en-1-yl)-2-(1-ethyl-3-methyl-1H-pyrazole-5-carboxamido)-7-methoxy-1H-benzo[d]imidazole-5-carboxamide] stands more than 7.30. `CCn1nc(C)cc1C(=O)Nc1nc2cc(C(N)=O)cc(OC)c2n1C/C=C/Cn1c(NC(=O)c2cc(C)nn2CC)nc2cc(C(N)=O)cc(OCC#CCC3CCN(C(=O)C4CCN(C(=O)OC(C)(C)C)CC4)CC3)c21` [Example 46, tert-butyl (E)-4-(4-(4-((5-carbamoyl-1-(4-(5-carbamoyl-2-(1-ethyl-3-methyl-1H-pyrazole-5-carboxamido)-7-methoxy-1H-benzo[d]imidazol-1-yl)but-2-en-1-yl)-2-(1-ethyl-3-methyl-1H-pyrazole-5-carboxamido)-1H-benzo[d]imidazol-7-yl)oxy)but-2-yn-1-yl)piperidine-1-carbonyl)piperidine-1-carboxylate] gave a pEC50 of more than 7.30.

`CCn1nc(C)cc1C(=O)Nc1nc2cc(C(N)=O)cc(OC)c2n1C/C=C/Cn1c(NC(=O)c2cc(C)nn2CC)nc2cc(C(N)=O)cc(OCC#CCC3CCN(S(=O)(=O)C4CC4)CC3)c21` [Example 48, (E)-1-(4-(5-carbamoyl-2-(1-ethyl-3-methyl-1H-pyrazole-5-carboxamido)-7-methoxy-1H-benzo[d]imidazol-1-yl)but-2-en-1-yl)-7-((4-(1-(cyclopropylsulfonyl)piperidin-4-yl)but-2-yn-1-yl)oxy)-2-(1-ethyl-3-methyl-1H-pyrazole-5-carboxamido)-1H-benzo[d]imidazole-5-carboxamide] gave a pEC50 of more than 7.30. With `CCn1nc(C)cc1C(=O)Nc1nc2cc(C(N)=O)cc(OC)c2n1C/C=C/Cn1c(NC(=O)c2cc(C)nn2CC)nc2cc(C(N)=O)cc(OCC#CC3CN(C(=O)OC(C)(C)C)C3)c21` [Example 30, tert-butyl (E)-3-(3-((5-carbamoyl-1-(4-(5-carbamoyl-2-(1-ethyl-3-methyl-1H-pyrazole-5-carboxamido)-7-methoxy-1H-benzo[d]imidazol-1-yl)but-2-en-1-yl)-2-(1-ethyl-3-methyl-1H-pyrazole-5-carboxamido)-1H-benzo[d]imidazol-7-yl)oxy)prop-1-yn-1-yl)azetidine-1-carboxylate], the pEC50 was more than 7.30. Under `CCn1nc(C)cc1C(=O)Nc1nc2cc(C(N)=O)cc(OC)c2n1C/C=C/Cn1c(NC(=O)c2cc(C)nn2CC)nc2cc(C(N)=O)cc(OCC#CCC3CCN(C(=O)OC4CC4)CC3)c21` [Example 44, cyclopropyl (E)-4-(4-((5-carbamoyl-1-(4-(5-carbamoyl-2-(1-ethyl-3-methyl-1H-pyrazole-5-carboxamido)-7-methoxy-1H-benzo[d]imidazol-1-yl)but-2-en-1-yl)-2-(1-ethyl-3-methyl-1H-pyrazole-5-carboxamido)-1H-benzo[d]imidazol-7-yl)oxy)but-2-yn-1-yl)piperidine-1-carboxylate] stands more than 7.30.
